Experimental data as given in US8664226B2, “Compound having 3-heteroarylpyrimidin-4-(3H)-one structure and pharmaceutical preparation containing same” (Kowa Company, Ltd., priority 2009, dated 2014).

These compounds were tested against T1, angiotensin II type 1 receptor (Oryctolagus cuniculus, UniProt P34976) (assay: Angiotensin II antagonistic activity in isolated rabbit blood vessels). Settings: angiotensin II (10 nM)-induced contraction of rabbit thoracic aorta ring.
T1 construct: By using a specimen of isolated rabbit blood vessels; from tissue; host or cells: rabbit thoracic aorta ring (New Zealand White, male)
T1 sequence (P34976 1-359): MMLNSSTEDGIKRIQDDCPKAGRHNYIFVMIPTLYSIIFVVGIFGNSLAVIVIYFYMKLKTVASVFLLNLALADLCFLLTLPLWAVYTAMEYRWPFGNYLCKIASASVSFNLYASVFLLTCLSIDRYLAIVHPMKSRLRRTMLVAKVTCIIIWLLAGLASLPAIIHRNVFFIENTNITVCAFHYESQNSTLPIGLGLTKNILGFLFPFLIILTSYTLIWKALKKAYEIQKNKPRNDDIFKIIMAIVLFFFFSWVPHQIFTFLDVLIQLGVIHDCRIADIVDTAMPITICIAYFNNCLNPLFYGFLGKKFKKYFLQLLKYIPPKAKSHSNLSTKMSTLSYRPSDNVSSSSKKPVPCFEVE
Description: By using a specimen of isolated rabbit blood vessels, antagonistic activity of the compounds of the invention against angiotensin II type 1 receptor was estimated from a dose-response curve of angiotensin II-induced blood vessel contraction.
During the measurement, the inside temperature of the magnus bath was maintained at 37° C. and the bath was continuously ventilated with a sufficient amount of mixed gas (95% O2 and 5% CO2). The angiotensin II-induced contraction was converted into a relative value (%) that is based on the angiotensin II (10 nM)-induced contraction in the absence of the compounds of each example. From the concentration-response curve obtained therefrom, 50% inhibition concentration (IC50 value) was calculated by using SAS Preclinical Package Ver5.0 (trade name, manufactured by SAS institute Japan Co., Tokyo, Japan), which is a statistical analysis program.
In the case of `CCCCc1nc(C)n(-c2ncc(OCCCNS(C)(=O)=O)cn2)c(=O)c1Cc1ccc(-c2ccccc2-c2nnn[nH]2)cc1` [Example 57, N-{3-{2-{5-{[2′-(1H-tetrazol-5-yl)biphenyl-4-yl]methyl}-4-butyl-2-methyl-6-oxopyrimidin-1(6H)-yl}pyrimidin-5-yloxy}propyl}methane sulfonamide], the IC50 is reported as 0.0036 µM. `CCCCc1nc(C)n(-c2ccc([N+](=O)[O-])cn2)c(=O)c1Cc1ccc(-c2ccccc2-c2nnn[nH]2)cc1` [Example 14, 5-{[2′-(1H-tetrazol-5-yl)biphenyl-4-yl]methyl}-6-butyl-2-methyl-3-(5-nitropyridin-2-yl)pyrimidin-4 (3H)-one] was tested, and the IC50 was 0.546 µM. `CCCCc1nc(C)n(-c2ncc(OCC(N)=O)cn2)c(=O)c1Cc1ccc(-c2ccccc2-c2nnn[nH]2)cc1` [Example 39, 2-{2-{5-{[2′-(1H-tetrazol-5-yl)biphenyl-4-yl]methyl}-4-butyl-2-methyl-6-oxopyrimidin-1(6H)-yl}pyrimidin-5-yloxy}acetamide] gave an IC50 of 0.001 µM. Work on `CCCCc1nc(C)n(-c2ncc(OCCCNC(C)=O)cn2)c(=O)c1Cc1ccc(-c2ccccc2-c2nnn[nH]2)cc1` [Example 56, N-{3-{2-{5-{[2′-(1H-tetrazol-5-yl)biphenyl-4-yl]methyl}-4-butyl-2-methyl-6-oxopyrimidin-1 (6H)-yl}pyrimidin-5-yloxy}propyl}acetamide] yielded an IC50 of 0.0024 µM. Work on `CCCCc1nc(C)n(-c2ncc(OCCCC(=O)O)cn2)c(=O)c1Cc1ccc(-c2ccccc2-c2nnn[nH]2)cc1` [Example 46, 4-{2-{5-{[2′-(1H-tetrazol-5-yl)biphenyl-4-yl]methyl}-4-butyl-2-methyl-6-oxopyrimidin-1(6H)-yl}pyrimidin-5-yloxy}butanoic acid] yielded an IC50 of 0.0043 µM. For `CCCCc1nc(C)n(-c2ncccc2C(F)(F)F)c(=O)c1Cc1ccc(-c2ccccc2-c2nnn[nH]2)cc1` [Example 9, 5-{[2′-(1H-tetrazol-5-yl)biphenyl-4-yl]methyl}-6-butyl-2-methyl-3-[3-(trifluoromethyl)pyridin-2-yl]pyrimidin-4(3H)-one], the IC50 was 0.014 µM. `CCCCc1nc(C)n(-c2ncn(C)n2)c(=O)c1Cc1ccc(-c2ccccc2-c2nnn[nH]2)cc1` [Example 65, 5-{[2′-(1H-tetrazol-5-yl)biphenyl-4-yl]methyl}-6-butyl-2-methyl-3-(1-methyl-1H-1,2,4-triazol-3-yl)pyrimidin-4 (3H)-one] was tested, and the IC50 was 0.023 µM. Compound `CCCCc1nc(C)n(-c2ncc(OCC(=O)OCC)cn2)c(=O)c1Cc1ccc(-c2ccccc2-c2nnn[nH]2)cc1` [Example 37] has an IC50 of 0.0252 µM. `CCCCc1nc(C)n(-c2nnc(C)c(C)n2)c(=O)c1Cc1ccc(-c2ccccc2-c2nnn[nH]2)cc1` [Example 61, 5-{[2′-(1H-tetrazol-5-yl)biphenyl-4-yl]methyl}-6-butyl-3-(5,6-dimethyl-1,2,4-triazin-3-yl)-2-methylpyrimidin-4 (3H)-one] showed an IC50 of 0.025 µM. In the case of `CCCCc1nc(C)n(-c2ncc(OCCCCC(=O)N(CC)CC)cn2)c(=O)c1Cc1ccc(-c2ccccc2-c2nnn[nH]2)cc1` [Example 55, 5-{2-{5-{[2′-(1H-tetrazol-5-yl)biphenyl-4-yl]methyl}-4-butyl-2-methyl-6-oxopyrimidin-1(6H)-yl}pyrimidin-5-yloxy}-N,N-diethylpentanamide], the IC50 is reported as under 0.1 µM. With `CCCCc1nc(C)n(-c2ncc(OCc3nc(-c4ccco4)oc3C)cn2)c(=O)c1Cc1ccc(-c2ccccc2-c2nnn[nH]2)cc1` [Example 33, 5-{[2′-(1H-tetrazol-5-yl)biphenyl-4-yl]methyl}-6-butyl-3-{5-{[2-(furan-2-yl)-5-methyloxazol-4-yl]methoxy}pyrimidin-2-yl}-2-methylpyrimidin-4 (3H)-one] the IC50 was 0.956 µM. Compound `CCCCc1nc(C)n(-c2ncc(OC(C(N)=O)c3ccccc3)cn2)c(=O)c1Cc1ccc(-c2ccccc2-c2nnn[nH]2)cc1` (stereo not drawn) [Example 44, 2-{2-{5-{[2′-(1H-tetrazol-5-yl)biphenyl-4-yl]methyl}-4-butyl-2-methyl-6-oxopyrimidin-1(6H)-yl}pyrimidin-5-yloxy}-2-phenylacetamide] has an IC50 of 0.963 µM.
